Results reported in ChEMBL document CHEMBL3885881, “DrugMatrix”.

Species on record: Rattus norvegicus
Assay: DrugMatrix - Regimen: Daily Repeat
Format: toxicity, organism-based, Sprague-Dawley
Design: regimen Daily Repeat, gender Male, age 6-8 weeks
Conditions: in vivo, po, route oral GAVAGE, vehicle .5 % CMC; for ABSOLUTE BASOPHIL / ABSOLUTE EOSINOPHIL / ABSOLUTE LYMPHOCYTE / ABSOLUTE MONOCYTE / ABSOLUTE SEGMENTED NEUTROPHIL / BASOPHIL / EOSINOPHIL / ERYTHROCYTE COUNT / HEMATOCRIT / HEMOGLOBIN / LEUKOCYTE COUNT / LYMPHOCYTE / MEAN CORPUSCULAR HEMOGLOBIN / MEAN CORPUSCULAR HEMOGLOBIN CONCENTRATION / MEAN CORPUSCULAR VOLUME / MONOCYTE / NEUTROPHIL / NUCLEATED RED BLOOD CELLS / PLATELET COUNT: tissue Blood; for ALANINE AMINOTRANSFERASE / ALBUMIN / ALKALINE PHOSPHATASE / ASPARTATE AMINOTRANSFERASE / BLOOD UREA NITROGEN / CARBON DIOXIDE / CHLORIDE / CHOLESTEROL / CREATINE PHOSPHOKINASE / CREATININE / GLUCOSE / LACTATE DEHYDROGENASE / LIPASE / PHOSPHORUS / POTASSIUM / SODIUM / TOTAL BILIRUBIN / TOTAL PROTEIN / URIC ACID: tissue Plasma
[1] = 150 mg/kg, 120 h, dose level Low, time 5 day
[2] = 1500 mg/kg, 72 h, dose level High, time 3 day
[3] = 1500 mg/kg, 120 h, dose level High, time 5 day

**Q.** Which results are given for `C[C@@H](O)[C@H]1C(=O)N2C(C(=O)O)=C(S[C@@H]3CN[C@H](C(=O)N(C)C)C3)[C@H](C)[C@H]12` [MEROPENEM]?
**A.** ABSOLUTE BASOPHIL [1]: 0 CELLS/uL; ABSOLUTE EOSINOPHIL [1]: 351 CELLS/uL; ABSOLUTE LYMPHOCYTE [1]: 13228.33 CELLS/uL; ABSOLUTE MONOCYTE [1]: 0 CELLS/uL; ABSOLUTE SEGMENTED NEUTROPHIL [1]: 1520.67 CELLS/uL; BASOPHIL [1]: 0%; EOSINOPHIL [1]: 2.33%; ERYTHROCYTE COUNT [1]: 5.62 x10E6/uL; HEMATOCRIT [1]: 34.4%; HEMOGLOBIN [1]: 13.1 G/DL; LEUKOCYTE COUNT [1]: 15.1 x10E3/uL; LYMPHOCYTE [1]: 88%; MEAN CORPUSCULAR HEMOGLOBIN [1]: 23.37 pg; MEAN CORPUSCULAR HEMOGLOBIN CONCENTRATION [1]: 38.1 G/DL; MEAN CORPUSCULAR VOLUME [1]: 61.33 fL; MONOCYTE [1]: 0%; NEUTROPHIL [1]: 9.67%; NUCLEATED RED BLOOD CELLS [1]: 0 /100WBC; PLATELET COUNT [1]: 1149.33 x10E3/uL; ALANINE AMINOTRANSFERASE [1]: 61.33 u/L; ALBUMIN [1]: 4.13 G/DL; ALKALINE PHOSPHATASE [1]: 367 u/L; ASPARTATE AMINOTRANSFERASE [1]: 86 u/L; BLOOD UREA NITROGEN [1]: 19 mg/dL; CARBON DIOXIDE [1]: 25.33 mmol/L; CHLORIDE [1]: 101.67 MEQ/L; CHOLESTEROL [1]: 70 mg/dL; CREATINE PHOSPHOKINASE [1]: 254 u/L; CREATININE [1]: 0.23 mg/dL; GLUCOSE [1]: 161 mg/dL; LACTATE DEHYDROGENASE [1]: 187.67 u/L; LIPASE [1]: 9 u/L; PHOSPHORUS [1]: 12.3 mg/dL; POTASSIUM [1]: 6.26 MEQ/L; SODIUM [1]: 142.3 MEQ/L; TOTAL BILIRUBIN [1]: 0.17 mg/dL; TOTAL PROTEIN [1]: 5.93 G/DL; URIC ACID [1]: 1.6 mg/dL; ABSOLUTE BASOPHIL [2]: 0 CELLS/uL; ABSOLUTE EOSINOPHIL [2]: 214 CELLS/uL; ABSOLUTE LYMPHOCYTE [2]: 12444.67 CELLS/uL; ABSOLUTE MONOCYTE [2]: 0 CELLS/uL; ABSOLUTE SEGMENTED NEUTROPHIL [2]: 841.33 CELLS/uL; BASOPHIL [2]: 0%; EOSINOPHIL [2]: 1.33%; ERYTHROCYTE COUNT [2]: 5.72 x10E6/uL; HEMATOCRIT [2]: 35.5%; HEMOGLOBIN [2]: 13.53 G/DL; LEUKOCYTE COUNT [2]: 13.5 x10E3/uL; LYMPHOCYTE [2]: 92.33%; MEAN CORPUSCULAR HEMOGLOBIN [2]: 23.8 pg; MEAN CORPUSCULAR HEMOGLOBIN CONCENTRATION [2]: 38.2 G/DL; MEAN CORPUSCULAR VOLUME [2]: 62.23 fL; MONOCYTE [2]: 0%; NEUTROPHIL [2]: 6.33%; NUCLEATED RED BLOOD CELLS [2]: 0 /100WBC; PLATELET COUNT [2]: 1189 x10E3/uL; ALANINE AMINOTRANSFERASE [2]: 52.67 u/L; ALBUMIN [2]: 4.33 G/DL; ALKALINE PHOSPHATASE [2]: 317 u/L; ASPARTATE AMINOTRANSFERASE [2]: 76 u/L; BLOOD UREA NITROGEN [2]: 13.33 mg/dL; CARBON DIOXIDE [2]: 29.33 mmol/L; CHLORIDE [2]: 99.67 MEQ/L; CHOLESTEROL [2]: 85.33 mg/dL; CREATINE PHOSPHOKINASE [2]: 176.67 u/L; CREATININE [2]: 0.17 mg/dL; GLUCOSE [2]: 160.67 mg/dL; LACTATE DEHYDROGENASE [2]: 71 u/L; LIPASE [2]: 9 u/L; PHOSPHORUS [2]: 11.83 mg/dL; POTASSIUM [2]: 6.87 MEQ/L; SODIUM [2]: 144.6 MEQ/L; TOTAL BILIRUBIN [2]: 0.17 mg/dL; TOTAL PROTEIN [2]: 5.9 G/DL; URIC ACID [2]: 1.9 mg/dL; ABSOLUTE BASOPHIL [3]: 0 CELLS/uL; ABSOLUTE EOSINOPHIL [3]: 276.67 CELLS/uL; ABSOLUTE LYMPHOCYTE [3]: 12982 CELLS/uL; ABSOLUTE MONOCYTE [3]: 0 CELLS/uL; ABSOLUTE SEGMENTED NEUTROPHIL [3]: 1474.67 CELLS/uL; BASOPHIL [3]: 0%; EOSINOPHIL [3]: 2%; ERYTHROCYTE COUNT [3]: 5.69 x10E6/uL; HEMATOCRIT [3]: 36.37%; HEMOGLOBIN [3]: 13.67 G/DL; LEUKOCYTE COUNT [3]: 14.73 x10E3/uL; LYMPHOCYTE [3]: 88%; MEAN CORPUSCULAR HEMOGLOBIN [3]: 24.07 pg; MEAN CORPUSCULAR HEMOGLOBIN CONCENTRATION [3]: 37.6 G/DL; MEAN CORPUSCULAR VOLUME [3]: 63.97 fL; MONOCYTE [3]: 0%; NEUTROPHIL [3]: 10%; NUCLEATED RED BLOOD CELLS [3]: 0 /100WBC; PLATELET COUNT [3]: 1178 x10E3/uL; ALANINE AMINOTRANSFERASE [3]: 52.33 u/L; ALBUMIN [3]: 4.47 G/DL; ALKALINE PHOSPHATASE [3]: 443.33 u/L; ASPARTATE AMINOTRANSFERASE [3]: 75.67 u/L; BLOOD UREA NITROGEN [3]: 16.67 mg/dL; CARBON DIOXIDE [3]: 28.33 mmol/L; CHLORIDE [3]: 101.33 MEQ/L; CHOLESTEROL [3]: 60.67 mg/dL; CREATINE PHOSPHOKINASE [3]: 199 u/L; CREATININE [3]: 0.23 mg/dL; GLUCOSE [3]: 155 mg/dL; LACTATE DEHYDROGENASE [3]: 127.33 u/L; LIPASE [3]: 9 u/L; PHOSPHORUS [3]: 12.27 mg/dL; POTASSIUM [3]: 6.59 MEQ/L; SODIUM [3]: 147.07 MEQ/L; TOTAL BILIRUBIN [3]: 0.13 mg/dL; TOTAL PROTEIN [3]: 6.3 G/DL; URIC ACID [3]: 1.6 mg/dL
